Reference: patent publication US20070032464A1, “Methods of treating cancers” (priority 2004, published 2007)

Legend:
[1] = target: T1, liver X receptor beta (i.e., UR) (Rattus norvegicus, UniProt Q62755); test: gene transactivation (luciferase reporter) assay in human embryonic kidney 293 cells, liver X receptor beta (UR); format: cell-based; conditions: 1 to 10 μM
T1 sequence (Q62755 1-446): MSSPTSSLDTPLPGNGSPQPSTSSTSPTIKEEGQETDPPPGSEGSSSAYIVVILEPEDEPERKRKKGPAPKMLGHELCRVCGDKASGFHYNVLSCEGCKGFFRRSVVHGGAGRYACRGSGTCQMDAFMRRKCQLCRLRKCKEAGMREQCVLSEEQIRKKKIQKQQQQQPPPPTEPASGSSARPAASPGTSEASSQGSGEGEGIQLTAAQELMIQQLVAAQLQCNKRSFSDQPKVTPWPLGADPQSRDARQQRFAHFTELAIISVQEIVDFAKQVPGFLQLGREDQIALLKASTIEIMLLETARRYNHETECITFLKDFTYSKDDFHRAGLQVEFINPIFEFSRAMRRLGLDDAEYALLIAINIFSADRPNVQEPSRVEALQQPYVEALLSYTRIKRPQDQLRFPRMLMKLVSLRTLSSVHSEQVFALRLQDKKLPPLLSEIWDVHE
T1 sequence (P19793 1-462 partner): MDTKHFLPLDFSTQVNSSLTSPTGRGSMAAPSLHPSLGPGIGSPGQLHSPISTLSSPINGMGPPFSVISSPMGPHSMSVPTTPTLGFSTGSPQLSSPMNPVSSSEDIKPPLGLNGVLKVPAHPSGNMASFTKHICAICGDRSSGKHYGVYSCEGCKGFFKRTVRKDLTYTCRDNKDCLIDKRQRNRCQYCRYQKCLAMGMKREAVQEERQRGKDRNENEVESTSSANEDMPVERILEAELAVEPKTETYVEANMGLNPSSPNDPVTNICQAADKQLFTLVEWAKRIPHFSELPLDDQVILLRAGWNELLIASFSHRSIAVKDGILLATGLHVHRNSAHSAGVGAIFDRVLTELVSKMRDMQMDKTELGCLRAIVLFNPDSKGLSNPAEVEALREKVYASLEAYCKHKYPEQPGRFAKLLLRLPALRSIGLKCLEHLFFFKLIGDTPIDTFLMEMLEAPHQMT
Method: (§1) See, e.g., Song, C. et al., Steroids, 2000, 65, 423-427.
(§2) Specifically, human embryonic kidney 293 cells were seeded into a 48-well culture plate at 10^5 cells per well in a Dulbecco's modified Eagle's medium (DMEM) supplemented with 10% fetal bovine serum. After incubation for 24 hours, the cells were transfected by the calcium phosphate coprecipitation method with 250 ng of a pGL3/UREluc reporter gene that consisted of three copies of AGGTCAagccAGGTCA fused to nucleotides −56 to +109 of the human c-fos promoter in front of the firefly luciferase gene in the plasmid basic pGL3 (Promega, Madison, Wis.), 40 ng pSG5/hRXRα, 40 ng pSG5/rUR or CMX/hliver X receptorα, 10 ng pSG5/hGrip1, 0.4 ng CMV/R-luc (transfection normalization reporter, Promega) and 250 ng carrier DNA per well. […]
(§3) After incubation for another 12 to 24 hours, the cells were washed with phosphate buffer saline and then refed with DMEM supplemented with 4% delipidated fetal bovine serum. […] After incubation for another 24 to 48 hours, the cells were harvested and the luciferase activity was measured with a commercial kit (Promega Dual luciferase II) on a Monolight luminometer (Becton Dickenson, Mountain View, Calif.).

[2] = target: T2, liver X receptor alpha (Homo sapiens, UniProt Q13133); test: gene transactivation (luciferase reporter) assay in human embryonic kidney 293 cells, liver X receptor alpha; format: cell-based; conditions: 1 to 10 μM
T2 sequence (Q13133 1-447): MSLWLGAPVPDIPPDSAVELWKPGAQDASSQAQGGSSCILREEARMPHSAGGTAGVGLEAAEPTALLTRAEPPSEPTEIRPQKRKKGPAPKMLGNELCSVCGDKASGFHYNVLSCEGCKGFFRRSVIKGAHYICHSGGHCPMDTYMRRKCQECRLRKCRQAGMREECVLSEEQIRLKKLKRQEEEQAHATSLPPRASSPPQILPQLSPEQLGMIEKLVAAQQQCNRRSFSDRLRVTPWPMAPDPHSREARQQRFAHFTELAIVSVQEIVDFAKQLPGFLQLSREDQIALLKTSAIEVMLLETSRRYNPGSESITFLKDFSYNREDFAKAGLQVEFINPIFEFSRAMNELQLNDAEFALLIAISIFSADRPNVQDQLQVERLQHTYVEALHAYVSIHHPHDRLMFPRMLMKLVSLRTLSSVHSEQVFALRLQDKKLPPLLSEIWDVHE
T2 sequence (P19793 1-462 partner): T1 sequence (P19793 1-462 partner)
Method: as §1, §2, §3

Structure (SMILES) | liver X receptor beta (UR) agonistic activity [1] | liver X receptor alpha agonistic activity [2]
CON(C)C(=O)CC[C@@H](C)[C@H]1CC[C@H]2[C@@H]3C[C@H](O)[C@@H]4C[C@H](O)CC[C@]4(C)[C@H]3CC[C@]12C [hypocholamide, N-methyl-N-methoxy-3α,6α-dihydroxy-5β-cholanoic acid-24-amide] | unexpectedly potent agonists | unexpectedly potent agonists
CC(CCC(O)(C(F)(F)F)C(F)(F)F)C1CCC2C3CC(O)C4CC(O)CCC4(C)C3CCC12C (stereo not drawn) [hypocholaride, 3α,6α,24-trihydroxy-5β-24,24-di(trifluoromethyl)-cholestane] | unexpectedly potent agonists | unexpectedly potent agonists
